The subject of this experiment is stroke-prone spontaneously hypertensive rats (SHRSP). In words: Stroke-prone spontaneously hypertensive rats (SHRSP), 4-week infusion. The note with it: 75 pmol/kg/min s.c. for 4 weeks. The class given is in vivo, rat. On the procedure: FIG. 27: AT2R stimulation by β-Pro^7-Ang III attenuates cardiac fibrosis in stroke-prone spontaneously hypertensive rats (SHRSP). Mean data for cardiac fibrosis determined by picrosirius red staining of transverse heart sections, under bright field microscopy, taken from ˜25-week old, male stroke-prone spontaneously hypertensive rats (SHRSP) that received either saline or β-Pro^7-Ang III (75 pmol/kg/min subcutaneously via osmotic mini-pump) for 4 weeks (n=3-4). Data expressed as mean±s.e.m of percentage positive stained area for fibrosis. **P<0.01 versus saline (unpaired t-test).
For the first time, β-Pro^7-Ang III was tested at the same dose, duration and route of administration (75 pmol/kg/min subcutaneously via osmotic mini-pump for 4 weeks) in adult male stroke-prone spontaneously hypertensive rats (SHRSP).

Turning to “Arg-Val-Tyr-Ile-His-β-Pro-Phe [βPro-Ang III]”, the “SBP in SHRSP” value was “did not affect SBP” and the “cardiac fibrosis (picrosirius red) in SHRSP” value is given as “significantly reduced cardiac fibrosis”.

Source of the values: US11331368B2, “Angiotensin receptor agonists and uses thereof” (Monash University, priority 2017, dated 2022).
